Experimental data from patent US5767088A, “Tachykinin antagonists” (Warner-Lambert Company, priority 1996, dated 1998).

The compounds below were run against T1, NK3 receptor (Homo sapiens, UniProt P29371) (assay: NK3 receptor binding assay, [125I]-[MePhe7]neurokinin B, Chinese hamster ovary cell membranes). Settings: competition with [125I]-[MePhe7]neurokinin B 40-100 pM, 90 minutes at 22° C., CHO cell membranes.
T1 construct: host or cells: Chinese hamster ovary cells (membranes)
T1 sequence (P29371 1-465): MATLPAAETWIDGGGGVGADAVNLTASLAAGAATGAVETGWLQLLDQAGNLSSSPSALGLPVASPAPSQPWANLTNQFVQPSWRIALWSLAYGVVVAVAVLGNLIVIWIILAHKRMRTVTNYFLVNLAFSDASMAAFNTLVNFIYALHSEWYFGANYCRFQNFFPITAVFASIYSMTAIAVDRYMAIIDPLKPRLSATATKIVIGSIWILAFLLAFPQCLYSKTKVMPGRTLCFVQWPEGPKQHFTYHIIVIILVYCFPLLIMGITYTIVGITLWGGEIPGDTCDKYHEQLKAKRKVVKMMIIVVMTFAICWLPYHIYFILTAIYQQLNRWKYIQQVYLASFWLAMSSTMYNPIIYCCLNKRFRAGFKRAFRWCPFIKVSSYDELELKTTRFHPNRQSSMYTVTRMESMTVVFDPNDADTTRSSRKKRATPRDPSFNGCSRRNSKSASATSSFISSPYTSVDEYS
For `CC(C)(C)OC(=O)NC(CNC(Cc1ccccc1)C(N)=O)Cc1ccccc1` (stereo not drawn) [Example 22, Carbamic acid, [2-[[2-amino-2-oxo-1-(phenylmethyl)-ethyl]amino]-1-(phenylmethyl)ethyl]-, 1,1-dimethylethyl ester], the IC50 was 4330 nM. `CC(C)(C)OC(=O)NC(Cc1cccc(Cl)c1)C(=O)N[C@](C)(Cc1ccccc1)C(N)=O` (mixture of isomers) [Example 21, D-Phenylalaninamide, 3-chloro-N-[(1,1-dimethylethoxy)-carbonyl]-DL-phenylalanyl-α-methyl-] was tested, and the IC50 was 904 nM. In the case of `CC(=O)NCCNC(=O)C(C)(Cc1ccccc1)NC(=O)[C@H](Cc1ccccc1)NC(=O)OC(C)(C)C` (mixture of isomers) [Example 10, DL-Phenylalaninamide, N-[(1,1-dimethylethoxy)carbonyl]-L-phenylalanyl-N-[2-(acetylamino)ethyl]-α-methyl-], the IC50 is reported as 180 nM. With `CC(C)COC(=O)N[C@@H](Cc1ccccc1)C(=O)NC(C)(Cc1ccccc1)C(N)=O` (mixture of isomers) [Example 17, DL-Phenylalaninamide, N-[(2-methylpropoxy)carbonyl]-L-phenylalanyl-α-methyl-] the IC50 was 1310 nM. For `CC(C)(C)OC(=O)N[C@@H](Cc1ccccc1)C(=O)NC(C)(Cc1ccccc1)C(=O)NCCCc1ccc(O)cc1` (mixture of isomers) [Example 4, DL-Phenylalaninamide, N-[(1,1-dimethylethoxy)carbonyl]-L-phenylalanyl-N-[3-(4-hydroxyphenyl)propyl]-α-methyl-], the IC50 was 88 nM. `CC(C)(C)OC(=O)N[C@@H](Cc1ccccc1)C(=O)NC(C)(Cc1ccccc1)C(=O)NCCCCCc1ccccc1` (mixture of isomers) [Example 6, DL-Phenylalaninamide, N-[(1,1-dimethylethoxy)carbonyl]-L-phenylalanyl-α-methyl-N-(5-phenylpentyl)-] was tested, and the IC50 was 77 nM. Work on “DL-Phenylalaninamide, N-[[(octahydro-2-naphthalenyl)-oxy]carbonyl]-L-phenylalanyl-α-methyl [Example 19]” yielded an IC50 of 3060 nM. In the case of `COc1ccc(CCCCNC(=O)[C@@](C)(Cc2ccccc2)NC(=O)[C@H](Cc2ccccc2)NC(=O)OC(C)(C)C)cc1` [Example 3], the IC50 is reported as 83 nM. Compound `CC(Cc1ccccc1)(NC(=O)[C@H](Cc1ccccc1)NC(=O)OCC1CCCCC1)C(N)=O` (mixture of isomers) [Example 16, DL-Phenylalaninamide, N-[(cyclohexylmethoxy)carbonyl]-L-phenylalanyl-α-methyl-] has an IC50 of 1220 nM. `CC(Cc1ccccc1)(NC(=O)[C@H](Cc1ccccc1)NC(=O)OCc1ccc(Cl)c(Cl)c1)C(N)=O` (mixture of isomers) [Example 18, DL-Phenylalaninamide, N-[[(3,4-dichlorophenyl)-methoxy]carbonyl]-L-phenylalanyl-α-methyl-] showed an IC50 of 1530 nM. In the case of `CC(C)(C)OC(=O)N[C@@H](Cc1ccccc1)C(=O)NC(C)(Cc1ccccc1)C(=O)NCC1CCC(C(=O)O)CC1` (mixture of isomers) [Example 13, DL-Phenylalaninamide, N-[(1,1-dimethylethoxy)carbonyl]-L-phenylalanyl-N-[(4-carboxycyclohexyl)methyl]-α-methyl-, trans-], the IC50 is reported as 719 nM. Compound `CC(C)(C)OC(=O)N[C@@H](Cc1ccccc1)C(=O)NC(C)(Cc1ccccc1)C(=O)NC1CCCC1` (mixture of isomers) [Example 7, DL-Phenylalaninamide, N-[(1,1-dimethylethoxy)carbonyl]-L-phenylalanyl-N-cyclopentyl-α-methyl-] has an IC50 of 556 nM. For `CC(C)(C)OC(=O)N[C@@H](Cc1ccccc1)C(=O)NC(C)(Cc1ccccc1)C(=O)NCCC1CCCC1` (mixture of isomers) [Example 11, DL-Phenylalaninamide, N-[(1,1-dimethylethoxy)carbonyl]-L-phenylalanyl-N-(2-cyclopentylethyl)-α-methyl-], the IC50 was 129 nM. For `CC(C)(C)OC(=O)N[C@@H](Cc1ccccc1)C(=O)NC(C)(Cc1ccccc1)C(=O)NCCc1ccc(Cl)cc1` (mixture of isomers) [Example 12, DL-Phenylalaninamide, N-[(1,1-dimethylethoxy)carbonyl]-L-phenylalanyl-N-[2-(4-chlorophenyl)ethyl]-α-methyl-], the IC50 was 141 nM. With `CC(C)CCNC(=O)C(C)(Cc1ccccc1)NC(=O)[C@H](Cc1ccccc1)NC(=O)OC(C)(C)C` (mixture of isomers) [Example 5, DL-Phenylalaninamide, N-[(1,1-dimethylethoxy)carbonyl]-L-phenylalanyl-α-methyl-N-3-methylbutyl-] the IC50 was 123 nM. With `CC(C)(C)OC(=O)N[C@@H](Cc1ccccc1)C(=O)NC(C)(Cc1cccc(Cl)c1)C(N)=O` (mixture of isomers) [Example 20, DL-Phenylalaninamide, N-[(1,1-dimethylethoxy)carbonyl]-L-phenylalanyl-3-chloro-α-methyl-] the IC50 was 1350 nM.

The compounds below were run against T2, NK3 (Cavia porcellus, UniProt P30098) (assay: guinea pig medial habenula assay (block of senktide-induced increases in firing rate, brain slice)). Settings: NK3 antagonist activity; mean equilibrium constant against senktide; brain slice in vitro; read-out: Guinea Pig Medial Habenula (Ke).
T2 sequence (P30098 1-440): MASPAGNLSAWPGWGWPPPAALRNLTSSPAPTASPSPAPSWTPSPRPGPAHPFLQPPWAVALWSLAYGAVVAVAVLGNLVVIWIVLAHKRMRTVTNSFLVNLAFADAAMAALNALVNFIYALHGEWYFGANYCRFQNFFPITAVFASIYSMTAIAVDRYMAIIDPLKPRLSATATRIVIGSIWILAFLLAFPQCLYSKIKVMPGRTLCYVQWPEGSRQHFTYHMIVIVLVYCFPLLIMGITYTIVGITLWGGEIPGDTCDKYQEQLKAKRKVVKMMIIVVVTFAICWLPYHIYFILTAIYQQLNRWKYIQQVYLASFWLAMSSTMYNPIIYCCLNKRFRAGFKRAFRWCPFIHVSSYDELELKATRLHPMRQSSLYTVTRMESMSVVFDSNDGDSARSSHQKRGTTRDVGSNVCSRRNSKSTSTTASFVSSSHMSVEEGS
Assay type: cell-based
Set-up: guinea pig medial habenula neurones in a brain slice preparation in vitro; from tissue; host or cells: guinea pig medial habenula brain slice
`CC(C)(C)OC(=O)N[C@@H](Cc1ccccc1)C(=O)N[C@](C)(Cc1ccccc1)C(=O)NCCCCCCCCC(N)=O` [Example 2, D-Phenylalaninamide, N-[(1,1-dimethylethoxy)carbonyl]-L-phenylalanyl-N-(9-amino-9-oxononyl)-α-methyl-] was tested, and the Kd was 25 nM.

These compounds were tested against T2, NK3 (assay: guinea pig ileum assay (Schild analysis of contractile responses)). Settings: NK3 antagonist activity; antagonist dissociation constant by Schild analysis.
Assay type: cell-based
Set-up: in vitro peripheral guinea pig ileum assay; from tissue; host or cells: guinea pig ileum (organ bath)
Work on `CC(C)(C)OC(=O)N[C@@H](Cc1ccccc1)C(=O)N[C@](C)(Cc1ccccc1)C(=O)NCCCCCCCCC(N)=O` [Example 2, D-Phenylalaninamide, N-[(1,1-dimethylethoxy)carbonyl]-L-phenylalanyl-N-(9-amino-9-oxononyl)-α-methyl-] yielded a Kb of 10 nM.
